What is called Ki is the dissociation constant of the complex between target and ligand, obtained from inhibition or displacement. As a reminder, the inhibition is the change of the read-out against control, counted positive when it falls.

Here are results for 18 compounds from ChEMBL document CHEMBL4359868, “New anthranilic acid-incorporating N-benzenesulfonamidophthalimides as potent inhibitors of carbonic anhydrases I, II, IX, and XII: Synthesis, in vitro testing, and in silico assessment” (Eur J Med Chem, 2019).

SMILES strings stand for the structures.

One assay concerns the target Carbonic anhydrase 1 (Homo sapiens, UniProt P00915). The assay can be described thus: Inhibition of recombinant human CA1 preincubated for 15 mins by phenol red dye-based stopped-flow CO2 hydration assay.
In another assay the target is Carbonic anhydrase 2 (Homo sapiens, UniProt P00918). Kind of assay: Inhibition of recombinant human CA2 preincubated for 15 mins by phenol red dye-based stopped-flow CO2 hydration assay.
The target in assay [1] is T1, Carbonic anhydrase 9 (Homo sapiens, UniProt Q16790).
Description: Inhibition of recombinant human CA9 preincubated for 15 mins by phenol red dye-based stopped-flow CO2 hydration assay
The target in a further assay is Carbonic anhydrase 12 (Homo sapiens, UniProt O43570).
Assay [2] has as its target T1, Carbonic anhydrase 9. The note with it: at 1 µM.
Description: Inhibition of recombinant human CA9 at 10^-6 M preincubated for 15 mins by phenol red dye-based stopped-flow CO2 hydration assay
For assay [3], the target named is T1, Carbonic anhydrase 9. The note with it: at 0.1 µM.
Description: Inhibition of recombinant human CA9 at 10^-7 M preincubated for 15 mins by phenol red dye-based stopped-flow CO2 hydration assay
The target of assay [4] is T1, Carbonic anhydrase 9. Kind of assay: Inhibition of recombinant human CA9 at 10^-4 M preincubated for 15 mins by phenol red dye-based stopped-flow CO2 hydration assay.
In assay [5] the target is T1, Carbonic anhydrase 9. The note with it: 10^-5 M.
Description: Inhibition of recombinant human CA9 at 10^-5 M preincubated for 15 mins by phenol red dye-based stopped-flow CO2 hydration assay
Assay [6] concerns the target T1, Carbonic anhydrase 9. The note with it: at 0.01 µM.
Description: Inhibition of recombinant human CA9 at 10^-8 M preincubated for 15 mins by phenol red dye-based stopped-flow CO2 hydration assay

Sequence of Carbonic anhydrase 1 (P00915 whole entry): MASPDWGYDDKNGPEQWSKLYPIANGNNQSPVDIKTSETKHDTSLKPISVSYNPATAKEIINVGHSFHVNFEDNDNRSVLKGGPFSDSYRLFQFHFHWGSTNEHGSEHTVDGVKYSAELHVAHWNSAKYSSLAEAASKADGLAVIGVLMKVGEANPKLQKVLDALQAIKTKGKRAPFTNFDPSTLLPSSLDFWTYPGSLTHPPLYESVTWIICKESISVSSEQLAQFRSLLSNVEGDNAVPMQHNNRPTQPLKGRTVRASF
Sequence of Carbonic anhydrase 12 (O43570 whole entry): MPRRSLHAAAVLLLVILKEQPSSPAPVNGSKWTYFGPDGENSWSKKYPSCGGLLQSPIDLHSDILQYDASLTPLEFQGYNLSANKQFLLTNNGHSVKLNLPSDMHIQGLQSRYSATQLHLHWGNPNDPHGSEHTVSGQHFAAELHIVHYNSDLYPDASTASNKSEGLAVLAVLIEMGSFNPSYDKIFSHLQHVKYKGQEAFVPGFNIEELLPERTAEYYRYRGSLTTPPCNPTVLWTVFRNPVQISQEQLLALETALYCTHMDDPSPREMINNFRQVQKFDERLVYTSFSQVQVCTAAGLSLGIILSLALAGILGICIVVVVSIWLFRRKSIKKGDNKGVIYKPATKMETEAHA
Description for Carbonic anhydrase 12: Inhibition of recombinant human CA12 preincubated for 15 mins by phenol red dye-based stopped-flow CO2 hydration assay

With `COc1ccc(NC(=O)c2ccc3c(c2)C(=O)N(CCc2ccccc2)C3=O)c(C(=O)O)c1`, the Ki at Carbonic anhydrase 1 is > 100 µM; on Carbonic anhydrase 2, > 100 µM; on Carbonic anhydrase 9 [1], 31 µM; at Carbonic anhydrase 12, > 100 µM.

Regarding `COc1ccc(NC(=O)c2ccc3c(c2)C(=O)N(Cc2ccccc2)C3=O)c(C(=O)O)c1`, the Ki on Carbonic anhydrase 1 is > 100 µM; on Carbonic anhydrase 9 [1], 41.9 µM; on Carbonic anhydrase 12, > 100 µM.

In the case of `COc1ccc(NC(=O)c2ccc3c(c2)C(=O)N(c2ccccc2)C3=O)c(C(=O)O)c1`, the results for the Ki on Carbonic anhydrase 2, at Carbonic anhydrase 9 [1] and on Carbonic anhydrase 12 were > 100 µM, 8.2 µM and > 100 µM, respectively.

For the compound `COc1ccc(NC(=O)c2ccc3c(c2)C(=O)N(c2ccc(C(=O)O)cc2)C3=O)c(C(=O)O)c1`, the Ki on Carbonic anhydrase 9 [1] was 0.72 µM.

Consider `O=C(O)c1ccc(N2C(=O)c3ccc(C(=O)Nc4ccc(Cl)cc4C(=O)O)cc3C2=O)cc1`, for which the inhibition against Carbonic anhydrase 9 [2] worked out at 70%; on Carbonic anhydrase 9 [3], 17%; on Carbonic anhydrase 9 [4] it was 92%; on Carbonic anhydrase 9 [5], 85%. Moreover, at Carbonic anhydrase 9 [1], the Ki is 0.46 µM.

For the compound `COc1ccc(NC(=O)c2ccc3c(c2)C(=O)N(c2ccc(S(N)(=O)=O)cc2)C3=O)c(C(=O)O)c1`, affinity on Carbonic anhydrase 9 [1] was put at a Ki of 0.0088 µM.

As for `O=C(Nc1ccc(Cl)cc1C(=O)O)c1ccc2c(c1)C(=O)N(c1ccccc1)C2=O`, the inhibition constant (Ki) at Carbonic anhydrase 1 is > 100 µM; at Carbonic anhydrase 9 [1] it was 5.5 µM; on Carbonic anhydrase 12 it was > 100 µM.

In the case of `NS(=O)(=O)c1ccc(CN2C(=O)c3ccc(C(=O)Nc4ccc(Cl)cc4C(=O)O)cc3C2=O)cc1`, affinity at Carbonic anhydrase 9 [1] was put at a Ki of 0.0216 µM.

As to `O=C(Nc1ccc(Cl)cc1C(=O)O)c1ccc2c(c1)C(=O)N(Cc1ccccc1)C2=O`, the Ki on Carbonic anhydrase 1 was > 100 µM; at Carbonic anhydrase 2 it was > 100 µM; on Carbonic anhydrase 9 [1], 47.3 µM; on Carbonic anhydrase 12 it was > 100 µM.

Consider `NS(=O)(=O)c1ccc(N2C(=O)c3ccc(C(=O)Nc4ccc(Cl)cc4C(=O)O)cc3C2=O)cc1`, for which the inhibition at Carbonic anhydrase 9 [2] was 96%; against Carbonic anhydrase 9 [3], 84%; at Carbonic anhydrase 9 [6] it was 63%. The same compound returned a Ki on Carbonic anhydrase 9 [1] of 0.0039 µM.

Regarding `O=C(Nc1ccc(Cl)cc1C(=O)O)c1ccc2c(c1)C(=O)N(CCc1ccccc1)C2=O`, the results for the inhibitory constant (Ki) on Carbonic anhydrase 1, at Carbonic anhydrase 9 [1] and on Carbonic anhydrase 12 were > 100 µM, 39.6 µM and > 100 µM, respectively.

Regarding `COc1ccc(NC(=O)c2ccc3c(c2)C(=O)N(Cc2ccc(S(N)(=O)=O)cc2)C3=O)c(C(=O)O)c1`, the Ki at Carbonic anhydrase 9 [1] was 0.036 µM.

Regarding `COc1ccc(NC(=O)c2ccc3c(c2)C(=O)OC3=O)c(C(=O)O)c1`, the Ki at Carbonic anhydrase 1, on Carbonic anhydrase 9 [1] and on Carbonic anhydrase 12 was > 0.1 µM in each case.

The compound `O=C(Nc1ccc(Cl)cc1C(=O)O)c1ccc2c(c1)C(=O)OC2=O` came in with a Ki on Carbonic anhydrase 9 [1] of 0.052 µM.

The compound `CCOC(=O)c1ccc(N2C(=O)c3ccc(C(=O)Nc4ccc(Cl)cc4C(=O)O)cc3C2=O)cc1` had a Ki on Carbonic anhydrase 9 [1] of 0.53 µM.

Turning to `CCOC(=O)c1ccc(N2C(=O)c3ccc(C(=O)Nc4ccc(OC)cc4C(=O)O)cc3C2=O)cc1`, on Carbonic anhydrase 9 [1], the Ki was 0.96 µM.

The compound `NS(=O)(=O)c1ccc(CCN2C(=O)c3ccc(C(=O)Nc4ccc(Cl)cc4C(=O)O)cc3C2=O)cc1` had an inhibition constant Ki on Carbonic anhydrase 9 [1] of 0.0073 µM.

At Carbonic anhydrase 9 [1], `COc1ccc(NC(=O)c2ccc3c(c2)C(=O)N(CCc2ccc(S(N)(=O)=O)cc2)C3=O)c(C(=O)O)c1` returned a Ki of 0.0082 µM.
